Source: article PMC7999658, “Characterization of P-Glycoprotein Inhibitors for Evaluating the Effect of P-Glycoprotein on the Intestinal Absorption of Drugs” (Pharmaceutics, 2021)
Where two headings read alike, the source gives them in different places.

Legend:
[1] = target: T1, BCRP (Homo sapiens, UniProt Q9UNQ0); experiment: Inhibition of BCRP-mediated transport of mitoxantrone across Caco-2 cell monolayers; conditions: Caco-2 monolayers
T1 sequence (Q9UNQ0 1-655): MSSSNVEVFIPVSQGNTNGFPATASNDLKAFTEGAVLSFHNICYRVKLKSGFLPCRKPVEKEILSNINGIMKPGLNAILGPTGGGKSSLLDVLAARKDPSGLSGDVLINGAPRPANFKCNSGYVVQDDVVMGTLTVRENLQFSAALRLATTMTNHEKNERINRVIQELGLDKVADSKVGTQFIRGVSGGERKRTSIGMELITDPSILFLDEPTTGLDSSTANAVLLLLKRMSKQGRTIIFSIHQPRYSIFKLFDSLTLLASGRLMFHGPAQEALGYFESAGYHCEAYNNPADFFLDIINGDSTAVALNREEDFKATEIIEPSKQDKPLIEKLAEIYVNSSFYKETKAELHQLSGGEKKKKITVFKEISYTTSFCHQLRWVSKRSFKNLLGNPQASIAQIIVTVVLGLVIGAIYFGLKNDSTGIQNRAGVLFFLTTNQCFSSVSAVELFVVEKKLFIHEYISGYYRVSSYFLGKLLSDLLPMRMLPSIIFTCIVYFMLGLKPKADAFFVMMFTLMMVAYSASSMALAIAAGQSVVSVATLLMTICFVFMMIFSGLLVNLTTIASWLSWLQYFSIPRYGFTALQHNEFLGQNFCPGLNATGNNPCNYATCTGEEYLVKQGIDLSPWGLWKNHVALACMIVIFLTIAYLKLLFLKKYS
Description: For transport experiments, Caco-2 cells were grown on a polyethylene terephthalate insert (0.4 μm pore size, 12 mm diameter) at 1.0 × 10^5 cells/well, and cultured for 14–21 days with the replacement of the medium once every 2 days. Caco-2 cells used in this study were within the passage range of 55 through 70.
(§1) The efflux ratio (ER) was calculated using Equation (3) ER = Papp,BA/Papp,AB(3) where Papp,AB and Papp,BA are the Papp values for AP-to-BL and BL-to-AP transport, respectively.
(§2) IC50 values of Papp,BA and ER were also determined using Equation (4).

[2] = target: T2, P-gp (Homo sapiens, UniProt P08183); experiment: Inhibition of P-gp-mediated transport of paclitaxel across Caco-2 cell monolayers; type: cell-based
T2 construct: host or cells: Caco-2
T2 sequence (P08183 whole entry): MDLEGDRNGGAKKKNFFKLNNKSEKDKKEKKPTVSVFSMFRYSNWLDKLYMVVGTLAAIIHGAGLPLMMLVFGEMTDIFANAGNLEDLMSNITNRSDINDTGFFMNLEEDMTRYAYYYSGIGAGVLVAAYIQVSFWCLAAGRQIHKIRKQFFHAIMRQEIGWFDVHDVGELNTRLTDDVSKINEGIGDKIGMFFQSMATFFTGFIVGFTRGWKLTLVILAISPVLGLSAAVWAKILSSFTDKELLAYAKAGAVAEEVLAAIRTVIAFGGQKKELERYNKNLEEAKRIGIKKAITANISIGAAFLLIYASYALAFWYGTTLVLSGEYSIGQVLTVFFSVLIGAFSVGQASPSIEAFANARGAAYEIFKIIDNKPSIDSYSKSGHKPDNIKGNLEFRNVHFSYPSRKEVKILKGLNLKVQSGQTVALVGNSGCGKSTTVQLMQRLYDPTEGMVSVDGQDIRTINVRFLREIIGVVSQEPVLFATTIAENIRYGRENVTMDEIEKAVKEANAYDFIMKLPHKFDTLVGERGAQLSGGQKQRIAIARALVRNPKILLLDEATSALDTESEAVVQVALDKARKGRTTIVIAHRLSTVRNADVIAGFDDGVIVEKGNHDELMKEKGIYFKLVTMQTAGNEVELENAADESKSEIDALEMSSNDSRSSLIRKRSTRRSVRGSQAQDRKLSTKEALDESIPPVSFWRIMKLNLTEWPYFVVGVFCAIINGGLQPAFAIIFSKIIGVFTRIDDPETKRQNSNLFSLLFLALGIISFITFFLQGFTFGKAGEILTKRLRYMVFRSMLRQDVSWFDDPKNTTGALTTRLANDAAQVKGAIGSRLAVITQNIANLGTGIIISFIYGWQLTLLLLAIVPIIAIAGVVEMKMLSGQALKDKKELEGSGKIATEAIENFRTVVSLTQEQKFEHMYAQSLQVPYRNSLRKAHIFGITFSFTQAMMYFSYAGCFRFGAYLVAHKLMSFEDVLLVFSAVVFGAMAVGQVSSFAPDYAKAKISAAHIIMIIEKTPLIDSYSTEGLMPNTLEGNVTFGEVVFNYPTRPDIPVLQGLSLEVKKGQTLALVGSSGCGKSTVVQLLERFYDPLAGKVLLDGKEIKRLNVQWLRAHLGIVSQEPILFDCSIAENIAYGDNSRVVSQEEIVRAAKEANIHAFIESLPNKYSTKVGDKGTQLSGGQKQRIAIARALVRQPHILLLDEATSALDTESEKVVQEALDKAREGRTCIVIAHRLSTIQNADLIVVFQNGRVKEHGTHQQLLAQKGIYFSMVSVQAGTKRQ
Description: Caco-2 cells from Dainippon Sumitomo Pharma (Osaka, Japan) were cultured in DMEM supplemented with 10% heat-inactivated fetal bovine serum, 1% antibiotic-antimycotic, 1% nonessential amino acids, and 2 mM L-glutamine [31]. Cells were maintained at 37 °C in 5% CO2/95% air and passaged upon reaching approximately 80% confluence using 0.25% trypsin/1 mM EDTA solution. For transport experiments, Caco-2 cells were grown on a polyethylene terephthalate insert (0.4 μm pore size, 12 mm diameter) at 1.0 × 10^5 cells/well, and cultured for 14–21 days with the replacement of the medium once every 2 days. Caco-2 cells used in this study were within the passage range of 55 through 70.
as §1, §2

[3] = system: P-gp; set-up: method as in PMID 18678495; conditions: cited from earlier work
[4] = IC50 on Papp,BA of mitoxantrone, mitoxantrone 5 μM, 50% decrease of Papp,BA
[5] = Caco-2 monolayers, 50% decrease of efflux ratio, read-out: IC50 on ER of paclitaxel
[6] = Caco-2 monolayers, paclitaxel 5 μM, 50% decrease of Papp,BA, read-out: IC50 on Papp,BA of paclitaxel
[7] = Caco-2 monolayers, paclitaxel 5 μM, inhibitor concentration to achieve 50% increase of Papp,AB, read-out: IC50 on Papp,AB of paclitaxel

Row | Structure (SMILES) | Hill coefficient, ER of mitoxantrone [1] | transport of paclitaxel in Caco-2 cells on addition of inhibitor ([2]; 0.01-10 μM inhibitor) | IC50 ([1]; IC50 on ER of mitoxantrone, 50% decrease of efflux ratio) [nM] | IC50 [1, 4] [nM] | Hill coefficient, ER of paclitaxel ([2]; Caco-2 monolayers) | IC50 [2, 5] [nM] | IC50 [2, 6] [nM] | IC50 [2, 7] [nM] | IC50 for P-gp-mediated Hoechst 33342 transport lower than that for BCRP-mediated Hoechst 33342 transport [3] | IC50 ([1]; read-out: IC50 on ER of mitoxantrone, 50% decrease of efflux ratio) [nM] | basal-to-apical transport of paclitaxel ([2]; Caco-2 monolayers)
1 | CCOC/C=C/c1ccc(-c2nc(-c3ccc(NC(C)C)cc3)c(-c3ccc(NC(C)C)cc3)[nH]2)cc1 [OC144-093, (E)-4,4’-(2-(4-[3-ethoxyprop-1-en-1-yl]phenyl)-1H-imidazole-4,5-diyl)bis(N-isopropylaniline)] | 3.61 ± 0.41 | not changed |  |  |  |  |  |  |  |  | 
2 | COc1cc(C(=O)C(=O)N2CCCC[C@H]2C(=O)OC(CCCc2cccnc2)CCCc2cccnc2)cc(OC)c1OC [VX-710, (S)-N-(2-Oxo-2-(3,4,5-trimethoxyphenyl)-acetyl)piperidine-2-carboxylic acid 1,7-bis(3-pyridyl)-4-heptyl ester] | 0.46 ± 0.12 |  | 1640 ± 520 | 2680 ± 31 | 1.68 ± 0.38 | 871 ± 277 | 4500 ± 84 | 2680 ± 53 |  |  | 
3 | COc1cc2c(cc1OC)CN(CCc1ccc(NC(=O)c3cc(OC)c(OC)cc3NC(=O)c3cnc4ccccc4c3)cc1)CC2 [XR9576, N-(2-([(4-(2-[3,4-Dihydro-6,7-dimethoxy-2(1H)-isoquinolinyl]ethyl)phenyl)amino]carbonyl)-4,5-dimethoxyphenyl)-3-quinolinecarboxamide] | 0.44 ± 0.05 |  |  | 1000 ± 45 | 3.41 ± 0.28 | 46 ± 19 | 64 ± 40 | 234 ± 61 | approximately 20.1 fold | 531 ± 162 | significantly decreased
